Source: the NIST ThermoML archive (doi:10.1021/acs.jced.9b00696)
± gives the expanded uncertainty stated by the source.

What was measured:
[1] = Crystal; DSC
[2] = Molar enthalpy of transition or fusion; conditions: Crystal; DSC

Question: Which Triple point temperature [1] does the source give for `C[C@]12CCC3=C4CCC(=O)C=C4CC[C@H]3[C@@H]1CC[C@@]2(O)CC#N` [dienogest] here?
Answer: 485.01 ± 0.81 K

Question: And the “Molar enthalpy of transition or fusion” value [2]?
Answer: 7.23 ± 0.335 kcal/mol
